Assay results taken from ChEMBL document CHEMBL4828714, “Mutasynthesis of Antibacterial Halogenated Actinomycin Analogues” (J Nat Prod, 2021).
In brackets after ≈: the same amount, converted by molar mass.

Assays:
Staphylococcus aureus [1] = experiment: Antimicrobial activity against Staphylococcus aureus Sau 16162 assessed as inhibition of bacterial growth incubated for 16 to 18 hrs by broth micro dilution technique; assay type: functional; conditions: time 16-18 hrs
Staphylococcus aureus [2] = experiment: Antimicrobial activity against Staphylococcus aureus Sau 6917 assessed as inhibition of bacterial growth incubated for 16 to 18 hrs by broth micro dilution technique; assay type: functional; conditions: time 16-18 hrs
Staphylococcus aureus [3] = experiment: Antimicrobial activity against Staphylococcus aureus Sau 1862 assessed as inhibition of bacterial growth incubated for 16 to 18 hrs by broth micro dilution technique; assay type: functional; conditions: time 16-18 hrs
Staphylococcus aureus [4] = experiment: Antimicrobial activity against Staphylococcus aureus Sau 991 assessed as inhibition of bacterial growth incubated for 16 to 18 hrs by broth micro dilution technique; assay type: functional; conditions: time 16-18 hrs
Staphylococcus aureus [5] = experiment: Antimicrobial activity against Staphylococcus aureus Sau 718306 assessed as inhibition of bacterial growth incubated for 16 to 18 hrs by broth micro dilution technique; assay type: functional; conditions: time 16-18 hrs
Staphylococcus aureus [6] = experiment: Antimicrobial activity against Staphylococcus aureus Sau 745524 assessed as inhibition of bacterial growth incubated for 16 to 18 hrs by broth micro dilution technique; assay type: functional; conditions: time 16-18 hrs
Staphylococcus aureus [7] = experiment: Antimicrobial activity against Staphylococcus aureus CCAM 3090 assessed as inhibition of bacterial growth incubated for 16 to 18 hrs by broth micro dilution technique; assay type: functional; conditions: time 16-18 hrs
Staphylococcus aureus [8] = experiment: Antimicrobial activity against Staphylococcus aureus ATCC 29213 assessed as inhibition of bacterial growth incubated for 16 to 18 hrs by broth micro dilution technique; assay type: functional; conditions: time 16-18 hrs
Micrococcus luteus = experiment: Antimicrobial activity against Micrococcus luteus ML01 assessed as inhibition of bacterial growth incubated for 16 to 18 hrs by broth micro dilution technique; assay type: functional; conditions: time 16-18 hrs
Enterococcus faecium = experiment: Antimicrobial activity against Enterococcus faecium ATCC 35682 assessed as inhibition of bacterial growth incubated for 16 to 18 hrs by broth micro dilution technique; assay type: functional; conditions: time 16-18 hrs
Enterococcus faecalis = experiment: Antimicrobial activity against Enterococcus faecalis ATCC 29212 assessed as inhibition of bacterial growth incubated for 16 to 18 hrs by broth micro dilution technique; assay type: functional; conditions: time 16-18 hrs
Bacillus thuringiensis = experiment: Antimicrobial activity against Bacillus thuringiensis BT01 assessed as inhibition of bacterial growth incubated for 16 to 18 hrs by broth micro dilution technique; assay type: functional; conditions: time 16-18 hrs
Candida albicans = experiment: Antimicrobial activity against Candida albicans assessed as inhibition of bacterial growth incubated for 16 to 18 hrs by broth micro dilution technique; assay type: functional; conditions: time 16-18 hrs
HepG2 = experiment: Cytotoxicity against human HepG2 cells assessed as growth inhibition incubated for 68 hrs by MTT assay; assay type: functional, cell-based; conditions: HepG2, 68 h
HeLa = experiment: Cytotoxicity against human HeLa cells assessed as growth inhibition incubated for 68 hrs by MTT assay; assay type: functional, cell-based
HL-60 = experiment: Cytotoxicity against human HL-60 cells assessed as growth inhibition incubated for 68 hrs by MTT assay; assay type: functional, cell-based; conditions: HL-60, 68 h
RKO = experiment: Cytotoxicity against human RKO cells assessed as growth inhibition incubated for 68 hrs by MTT assay; assay type: functional, cell-based
A549 = experiment: Cytotoxicity against human A549 cells assessed as growth inhibition incubated for 68 hrs by MTT assay; assay type: functional, cell-based; conditions: A549, 68 h
MCF7 = experiment: Cytotoxicity against human MCF7 cells assessed as growth inhibition incubated for 68 hrs by MTT assay; assay type: functional, cell-based; conditions: MCF7, 68 h
L02 = experiment: Cytotoxicity against human L02 cells assessed as growth inhibition incubated for 68 hrs by MTT assay; assay type: cell-based; conditions: L02, 68 h
BEAS-2B = experiment: Cytotoxicity against human BEAS-2B cells assessed as growth inhibition incubated for 68 hrs by MTT assay; assay type: cell-based

| Compound | MIC (Staphylococcus aureus [1]) | MIC (Staphylococcus aureus [2]) | MIC (Staphylococcus aureus [3]) | MIC (Staphylococcus aureus [4]) | MIC (Staphylococcus aureus [5]) | MIC (Staphylococcus aureus [6]) | MIC (Staphylococcus aureus [7]) | MIC (Staphylococcus aureus [8]) | MIC (Micrococcus luteus) | MIC (Enterococcus faecium) | MIC (Enterococcus faecalis) | MIC (Bacillus thuringiensis) | MIC (Candida albicans) | IC50 (HepG2) | IC50 (HeLa) | IC50 (HL-60) | IC50 (RKO) | IC50 (A549) | IC50 (MCF7) | IC50 (L02) | also measured |
| --- | --- | --- | --- | --- | --- | --- | --- | --- | --- | --- | --- | --- | --- | --- | --- | --- | --- | --- | --- | --- | --- |
| CC(C)[C@H]1C(=O)O[C@H](C)[C@H](NC(=O)c2c3nc4c(C(=O)N[C@@H]5C(=O)N[C@H](C(C)C)C(=O)N6CCC[C@H]6C(=O)N(C)CC(=O)N(C)[C@@H](C(C)C)C(=O)O[C@@H]5C)ccc(F)c4oc-3c(F)c(=O)c2N)C(=O)N[C@H](C(C)C)C(=O)N2CCC[C@H]2C(=O)N(C)CC(=O)N1C | 32 µg/mL (≈ 25.3 µM) | 32 µg/mL (≈ 25.3 µM) | 32 µg/mL (≈ 25.3 µM) | 32 µg/mL (≈ 25.3 µM) | 32 µg/mL (≈ 25.3 µM) | 32 µg/mL (≈ 25.3 µM) | 32 µg/mL (≈ 25.3 µM) | 32 µg/mL (≈ 25.3 µM) | 2 µg/mL (≈ 1.58 µM) | 4 µg/mL (≈ 3.17 µM) | 64 µg/mL (≈ 50.7 µM) | 16 µg/mL (≈ 12.7 µM) | 64 µg/mL (≈ 50.7 µM) | > 50 µM | > 50 µM | > 50 µM | > 50 µM | > 50 µM | 17.1 µM | > 50 µM | IC50 (BEAS-2B): > 50 µM |
| CC(C)[C@H]1C(=O)O[C@H](C)[C@H](NC(=O)c2c3nc4c(C(=O)N[C@@H]5C(=O)N[C@H](C(C)C)C(=O)N6CCC[C@H]6C(=O)N(C)CC(=O)N(C)[C@@H](C(C)C)C(=O)O[C@@H]5C)ccc(Br)c4oc-3c(Br)c(=O)c2N)C(=O)N[C@H](C(C)C)C(=O)N2C[C@@H](O)C[C@H]2C(=O)N(C)CC(=O)N1C | 16 µg/mL (≈ 11.4 µM) | 32 µg/mL (≈ 22.8 µM) | 16 µg/mL (≈ 11.4 µM) | 16 µg/mL (≈ 11.4 µM) | 16 µg/mL (≈ 11.4 µM) | 16 µg/mL (≈ 11.4 µM) | 16 µg/mL (≈ 11.4 µM) | 16 µg/mL (≈ 11.4 µM) | 0.5 µg/mL (≈ 0.357 µM) | 2 µg/mL (≈ 1.43 µM) | 32 µg/mL (≈ 22.8 µM) | 2 µg/mL (≈ 1.43 µM) | 8 µg/mL (≈ 5.71 µM) | 3 µM | 2.4 µM | 0.2 µM | 1.3 µM | 53.7 µM | 2.9 µM | 3.1 µM | IC50 (BEAS-2B): 0.9 µM |

The remaining compounds from weak to strong by MIC (Staphylococcus aureus [1]), led by results:

| MIC (Staphylococcus aureus [1]) | MIC (Staphylococcus aureus [2]) | MIC (Staphylococcus aureus [3]) | MIC (Staphylococcus aureus [4]) | MIC (Staphylococcus aureus [5]) | MIC (Staphylococcus aureus [6]) | MIC (Staphylococcus aureus [7]) | MIC (Staphylococcus aureus [8]) | MIC (Micrococcus luteus) | MIC (Enterococcus faecium) | MIC (Enterococcus faecalis) | MIC (Bacillus thuringiensis) | MIC (Candida albicans) | Compound | IC50 (HepG2) | IC50 (HeLa) | IC50 (HL-60) | IC50 (RKO) | IC50 (A549) | IC50 (MCF7) | IC50 (L02) | also measured |
| --- | --- | --- | --- | --- | --- | --- | --- | --- | --- | --- | --- | --- | --- | --- | --- | --- | --- | --- | --- | --- | --- |
| 16 µg/mL (≈ 12.3 µM) | 32 µg/mL (≈ 24.7 µM) | 16 µg/mL (≈ 12.3 µM) | 16 µg/mL (≈ 12.3 µM) | 16 µg/mL (≈ 12.3 µM) | 16 µg/mL (≈ 12.3 µM) | 32 µg/mL (≈ 24.7 µM) | 32 µg/mL (≈ 24.7 µM) | 0.06 µg/mL (≈ 0.0463 µM) | 0.13 µg/mL (≈ 0.1 µM) | 16 µg/mL (≈ 12.3 µM) | 0.5 µg/mL (≈ 0.386 µM) | 16 µg/mL (≈ 12.3 µM) | CC(C)[C@H]1C(=O)O[C@H](C)[C@H](NC(=O)c2c3nc4c(C(=O)N[C@@H]5C(=O)N[C@H](C(C)C)C(=O)N6CCC[C@H]6C(=O)N(C)CC(=O)N(C)[C@@H](C(C)C)C(=O)O[C@@H]5C)ccc(Cl)c4oc-3c(Cl)c(=O)c2N)C(=O)N[C@H](C(C)C)C(=O)N2CCC[C@H]2C(=O)N(C)CC(=O)N1C | 2.8 µM | 51 µM | 0.2 µM | 11.1 µM | 4.5 µM | 17.3 µM | 4.6 µM | IC50 (BEAS-2B): 1 µM |
| 8 µg/mL (≈ 5.91 µM) | 4 µg/mL (≈ 2.96 µM) | 4 µg/mL (≈ 2.96 µM) | 4 µg/mL (≈ 2.96 µM) | 2 µg/mL (≈ 1.48 µM) | 2 µg/mL (≈ 1.48 µM) | 4 µg/mL (≈ 2.96 µM) | 4 µg/mL (≈ 2.96 µM) | 0.06 µg/mL (≈ 0.0443 µM) | 2 µg/mL (≈ 1.48 µM) | 4 µg/mL (≈ 2.96 µM) | 1 µg/mL (≈ 0.739 µM) | 2 µg/mL (≈ 1.48 µM) | CC(C)[C@H]1C(=O)O[C@H](C)[C@H](NC(=O)c2c3nc4c(C(=O)N[C@@H]5C(=O)N[C@H](C(C)C)C(=O)N6CCC[C@H]6C(=O)N(C)CC(=O)N(C)[C@@H](C(C)C)C(=O)O[C@@H]5C)cccc4oc-3c(I)c(=O)c2N)C(=O)N[C@H](C(C)C)C(=O)N2CCC[C@H]2C(=O)N(C)CC(=O)N1C | 3.3 µM | 10 µM | 0.4 µM | 3.3 µM | 34 µM | 25.7 µM | 20.9 µM | IC50 (BEAS-2B): 12.4 µM |
| 4 µg/mL (≈ 2.96 µM) | 1 µg/mL (≈ 0.739 µM) | 2 µg/mL (≈ 1.48 µM) | 1 µg/mL (≈ 0.739 µM) | 1 µg/mL (≈ 0.739 µM) | 0.5 µg/mL (≈ 0.369 µM) | 1 µg/mL (≈ 0.739 µM) | 1 µg/mL (≈ 0.739 µM) | 0.06 µg/mL (≈ 0.0443 µM) | 0.5 µg/mL (≈ 0.369 µM) | 2 µg/mL (≈ 1.48 µM) | 0.25 µg/mL (≈ 0.185 µM) | 0.5 µg/mL (≈ 0.369 µM) | CC(C)[C@H]1C(=O)O[C@H](C)[C@H](NC(=O)c2c3nc4c(C(=O)N[C@@H]5C(=O)N[C@H](C(C)C)C(=O)N6CCC[C@H]6C(=O)N(C)CC(=O)N(C)[C@@H](C(C)C)C(=O)O[C@@H]5C)ccc(I)c4oc-3cc(=O)c2N)C(=O)N[C@H](C(C)C)C(=O)N2CCC[C@H]2C(=O)N(C)CC(=O)N1C | 0.1 µM | 4.4 µM | 0.07 µM | 0.1 µM | 9 µM | 2 µM | 1.7 µM | IC50 (BEAS-2B): 0.5 µM |
